pIC50: −log10 of the molar value. Read-outs that look alike come from different tables or passages of the source.
Tests used:
[1] = test system: MDR1-MDCK cell monolayers; test: MDR1/MDCK permeability assay; format: in vitro ADME; details: Table 3; for MDCK Permeability (MDR1-MDCK); Mean; Papp(A-B) (10^−6 cm/s): A to B; for MDCK Permeability (MDR1-MDCK); Mean; Papp(B-A) (10^−6 cm/s): B to A; for MIDCK Permeability (MDR1-MDCK); Mean; P. Ratio(B-A/A-B) Efflux Ratio: Papp B-A/A-B
Text: The MDR1/MDCK assay is run at WuXi and Absorption Systems. This assay is used to determine the blood-brain barrier (BBB) penetration potential of a test compound using MDR1-MDCK cell monolayers. Catalog number EA203.
• The percent recovery of the test compound from the Transwell® wells containing MDR1-MDCK cell monolayers • The apparent permeability (Papp) in both directions • The efflux ratio (Papp B to A)/(Papp A to B) • The blood-brain barrier penetration potential classification: • High when • Papp A to B≥3.0×10^−6 cm/s, and efflux<3.0 • Moderate when • Papp A to B≥3.0×10^−6 cm/s, and 10>efflux≥3.0 • Low when either • Papp A to B≥3.0×10^−6 cm/s, and […], or when • Papp A to B<[…].
• Test compound at 5 μM in HBSSg with maximum DMSO concentration not greater than 1%.
• Confluent monolayers of MDR1-MDCK cells, 7 to 11 days old.
• Receiver well with 1% BSA in modified Hanks buffer (HBSSg) • Apical and basolateral side at pH 7.4 • Dose two monolayers in each direction (N=2) • Dose apical side for (A to B) assessment • Dose basolateral side for (B to A) assessment • Sample both apical and basolateral sides at 120 minutes • Determine the concentrations of test compound using a generic LC-MS/MS method with a minimum 4 point calibration curve.
• The quality of the cell monolayer batch is verified using control compounds before monolayers are released for use • The quality of each monolayer used in the assay is verified by a TEER measurement and by calculating the Papp for a control compound.

[2] = molecular target: T1, GSK3b (GST-full length GSK3b) (Homo sapiens, UniProt P49841); test: GSK3b TR-FRET kinase inhibition assay; format: biochemical
T1 construct: GST-full length GSK3b: [SignalChem G08-9G]; purchased SignalChem G08-9G
In short: (§1)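 GST-tagged full-length human kinase (1 nM), pre-incubated 30 min with compound, then reacted 100 min at ambient temperature at pH 7.5 with 200 nM biotinylated phospho-S645 glycogen synthase 631–650 peptide and ATP at 2 μM–1 mM. After EDTA quench, Tb-pSer641 antibody/streptavidin-d2 TR-FRET 665/615 ratio fitted for IC50.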

[3] = molecular target: T2, GSK3a (GST-full length GSK3a) (Homo sapiens, UniProt P49840); test: GSK3a TR-FRET kinase inhibition assay; format: biochemical
T2 construct: GST-full length GSK3a [SignalChem G08-10G]; purchased SignalChem G08-10G
In short: as §1

[4] = 1 mM ATP, Table 3, read-out: GSK3b TR-FRET 1 mM ATP Average IC50
[5] = 1 mM ATP, Table 3, read-out: GSK3a TR-FRET 1 mM ATP Average IC50
[6] = 1 mM ATP, Table 5, read-out: GSK3β TR-FRET 1 mM ATP Average IC50
[7] = 1 mM ATP, Table 5, read-out: GSK3α TR-FRET 1 mM ATP Average IC50
[8] = 2 μM ATP, read-out: GSK3β TR-FRET 2 μM ATP GMean IC50
[9] = 4 μM ATP, read-out: GSK3α TR-FRET 4 μM ATP GMean IC50

T2 sequence (P49840 whole entry): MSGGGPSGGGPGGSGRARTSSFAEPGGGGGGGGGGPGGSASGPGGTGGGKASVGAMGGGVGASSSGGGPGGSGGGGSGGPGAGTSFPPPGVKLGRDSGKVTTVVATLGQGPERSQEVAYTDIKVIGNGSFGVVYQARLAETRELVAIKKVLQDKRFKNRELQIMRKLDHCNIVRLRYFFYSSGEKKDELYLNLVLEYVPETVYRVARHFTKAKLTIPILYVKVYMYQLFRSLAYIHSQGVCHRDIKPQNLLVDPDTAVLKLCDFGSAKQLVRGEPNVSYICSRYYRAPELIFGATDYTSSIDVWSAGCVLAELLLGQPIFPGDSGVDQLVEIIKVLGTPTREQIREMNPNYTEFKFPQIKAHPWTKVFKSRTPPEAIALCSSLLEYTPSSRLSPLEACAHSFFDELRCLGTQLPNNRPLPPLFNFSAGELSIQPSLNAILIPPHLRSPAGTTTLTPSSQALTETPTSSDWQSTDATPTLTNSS
T1 sequence (P49841 whole entry): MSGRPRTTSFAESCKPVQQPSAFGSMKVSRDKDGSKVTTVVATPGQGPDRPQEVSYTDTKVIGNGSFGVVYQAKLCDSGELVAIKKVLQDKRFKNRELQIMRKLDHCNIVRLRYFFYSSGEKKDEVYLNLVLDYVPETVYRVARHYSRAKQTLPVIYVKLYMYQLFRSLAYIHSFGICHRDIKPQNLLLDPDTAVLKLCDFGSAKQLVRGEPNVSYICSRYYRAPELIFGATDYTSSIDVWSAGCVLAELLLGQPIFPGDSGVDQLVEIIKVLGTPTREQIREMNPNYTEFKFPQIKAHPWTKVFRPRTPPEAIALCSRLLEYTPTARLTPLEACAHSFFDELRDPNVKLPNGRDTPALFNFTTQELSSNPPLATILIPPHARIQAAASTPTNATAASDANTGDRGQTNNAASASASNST

pIC50 [2, 4] | pIC50 [3, 5] | pIC50 [2, 6] | pIC50 [3, 7] | SMILES | other results
6.00 to 7.00 | 6.00 to 7.00 | – | – | CC1(C)CC(=O)C2=C(C1)Nc1nccc(C#N)c1C2(C)c1ccccc1 (single isomer, unassigned) [Compound 108A] | MDCK Permeability (MDR1-MDCK); Mean; Papp(A-B) (10^−6 cm/s) [1]: 18 10^−6 cm/s; MDCK Permeability (MDR1-MDCK); Mean; Papp(B-A) (10^−6 cm/s) [1]: 56 10^−6 cm/s; MIDCK Permeability (MDR1-MDCK); Mean; P. Ratio(B-A/A-B) Efflux Ratio [1]: 3.2
≥ 7.00 | ≥ 7.00 | – | – | CC1(C)CC(=O)C2=C(C1)Nc1ncc(F)c(C#N)c1C2(C)c1ccccc1 (single isomer, unassigned) [Compound 121A] | MDCK Permeability (MDR1-MDCK); Mean; Papp(A-B) (10^−6 cm/s) [1]: 22 10^−6 cm/s; MDCK Permeability (MDR1-MDCK); Mean; Papp(B-A) (10^−6 cm/s) [1]: 63 10^−6 cm/s; MIDCK Permeability (MDR1-MDCK); Mean; P. Ratio(B-A/A-B) Efflux Ratio [1]: 2.9
– | – | 4.70 to 5.30 | 4.70 to 5.30 | CC1(C)CC2=C(C(=O)[C@H]1F)[C@@](C)(c1ccccc1)c1c(ncc(F)c1C#N)N2 (single isomer, unassigned) [Compound 616C] | –
4.70 to 5.30 | 4.70 to 5.30 | – | – | CC1(C)CC(=O)C2=C(C1)Nc1ncc(Br)c(F)c1C2(C)c1ccccc1 (single isomer, unassigned) [Compound 140B] | –
5.30 to 6.00 | 5.30 to 6.00 | – | – | CC1(C)CC(=O)C2=C(C1)Nc1ncccc1C2(C)c1cccc(-c2ccncc2N2CCOCC2)c1 (single isomer, unassigned) [Compound 164A] | –
– | – | 5.30 to 6.00 | 4.70 to 5.30 | CC(C)Oc1cccc(C2(C)C3=C(CC(C)(C)CC3=O)Nc3ncc(C(F)(F)F)cc32)c1 (single isomer, unassigned) [648A] | –
5.30 to 6.00 | 4.70 to 5.30 | – | – | CC1(C)CC(=O)C2=C(C1)Nc1ncc(C(F)(F)F)c(Cl)c1C2(C)c1ccccc1 (single isomer, unassigned) [Compound 141A] | –
– | – | – | – | CCC1(c2cccc(-c3ccnc4c3CCC4)c2)C2=C(CC(C)(C)CC2=O)Nc2ncccc21 (single isomer, unassigned) [Compound 1034A] | pIC50 [2, 8]: < 5.30; pIC50 [3, 9]: < 5.30
– | – | – | – | CCC1(c2cccc(-c3ccnc(C)c3)c2)C2=C(CC(C)(C)CC2=O)Nc2ncccc21 (single isomer, unassigned) [Compound 1021B] | pIC50 [2, 8]: 6.00 to 7.00; pIC50 [3, 9]: 6.00 to 7.00
– | – | – | – | CCC1(c2cccc(-c3ccnc(C)c3)c2)C2=C(CC(C)(C)CC2=O)Nc2ncccc21 (single isomer, unassigned) [Compound 1021A] | pIC50 [2, 8]: < 5.30; pIC50 [3, 9]: < 5.30
– | – | – | – | CCC1(c2ccccc2)C2=C(CC3(CCC3)CC2=O)Nc2ncccc21 (single isomer, unassigned) [110 B] | pIC50 [2, 8]: < 5.30; pIC50 [3, 9]: < 5.30
≥ 7.00 | ≥ 7.00 | – | – | CC1(C)CC(=O)C2=C(C1)Nc1ncc(F)c(C#N)c1C2(C)c1cccc(S(C)(=O)=O)c1 (single isomer, unassigned) [Compound 148A] | –
– | – | 6.00 to 7.00 | 6.00 to 7.00 | CC1(C)CC(=O)C2=C(C1)Nc1ncc(F)cc1C2(C)c1cccc(C(F)F)c1 (single isomer, unassigned) [623B] | –
6.00 to 7.00 | 6.00 to 7.00 | – | – | CC1(C)CC(=O)C2=C(C1)Nc1ncc(F)cc1C2(C)c1cccc(-c2c(F)cncc2CC2CC2)c1 (single isomer, unassigned) [Compound 169A] | –
– | – | 6.00 to 7.00 | 6.00 to 7.00 | Cc1c(C2(C)C3=C(CC(C)(C)CC3=O)Nc3ncc(F)cc32)cccc1S(C)(=O)=O (single isomer, unassigned) [643A] | –
– | – | – | – | CCC1(c2cccc(-c3cc(C)nn3C)c2)C2=C(CC(C)(C)CC2=O)Nc2ncc(F)cc21 (single isomer, unassigned) [Compound 1033A] | pIC50 [2, 8]: < 5.30; pIC50 [3, 9]: 5.30 to 6.00
– | – | – | – | CCC1(c2ccccc2)C2=C(Nc3ncccc31)C(F)C(C)(C)CC2=O (single isomer, unassigned) [Compound 1006B] | pIC50 [2, 8]: < 5.30; pIC50 [3, 9]: < 5.30
– | – | – | – | CCC1(c2cccc(-c3cncn3C(C)C)c2)C2=C(CC(C)(C)CC2=O)Nc2ncccc21 (single isomer, unassigned) [Compound 149B] | pIC50 [2, 8]: 6.00 to 7.00; pIC50 [3, 9]: 6.00 to 7.00

pIC50 [2, 4] | pIC50 [3, 5] | pIC50 [2, 6] | pIC50 [3, 7] | SMILES | other results
6.00 to 7.00 | 5.30 to 6.00 | – | – | CC(C)c1ccnc2c1C(C)(c1ccccc1)C1=C(CC(C)(C)CC1=O)N2 (single isomer, unassigned) [Compound 120A] | –
≥ 7.00 | ≥ 7.00 | – | – | CC1(C)CC(=O)C2=C(C1)Nc1ncc(F)cc1C2(C)c1cccc(S(C)(=O)=O)c1 (single isomer, unassigned) [Compound 139A] | MDCK Permeability (MDR1-MDCK); Mean; Papp(A-B) (10^−6 cm/s) [1]: 0.52 10^−6 cm/s; MDCK Permeability (MDR1-MDCK); Mean; Papp(B-A) (10^−6 cm/s) [1]: 75 10^−6 cm/s; MIDCK Permeability (MDR1-MDCK); Mean; P. Ratio(B-A/A-B) Efflux Ratio [1]: 144
– | – | 4.70 to 5.30 | 4.70 to 5.30 | CN(C)c1cnc2c(c1C#N)C(C)(c1ccccc1)C1=C(CC(C)(C)CC1=O)N2 (single isomer, unassigned) [624A] | –
– | – | 4.70 to 5.30 | 4.70 to 5.30 | CC1(C)CC(=O)C2=C(C1)Nc1ncc(C3CCCC3)c(C#N)c1C2(C)c1ccccc1 (single isomer, unassigned) [635A] | –
4.70 to 5.30 | 4.70 to 5.30 | – | – | CC1(C)CC(=O)C2=C(C1)Nc1ncc(F)cc1C2(C)c1cccc(S(C)(=O)=O)c1 (single isomer, unassigned) [Compound 139B] | –
– | – | 6.00 to 7.00 | 6.00 to 7.00 | CC1(C)CC(=O)C2=C(C1)Nc1ncc(F)c(C#N)c1C2(C)c1cccc(-c2ccncc2CC(F)(F)F)c1 (single isomer, unassigned) [656A] | –
– | – | 4.70 to 5.30 | 4.70 to 5.30 | C=C(C)c1cnc2c(c1C#N)C(C)(c1ccccc1)C1=C(CC(C)(C)CC1=O)N2 (single isomer, unassigned) [620A] | –
– | – | – | – | CCC1(c2ccccc2)C2=C(CC(C)(C)CC2=O)Nc2ncc(F)cc21 (racemic) [Compound 114] | pIC50 [2, 8]: ≥ 7.00; pIC50 [3, 9]: ≥ 7.00
4.70 to 5.30 | – | – | – | CC1(C)CC(=O)C2=C(C1)Nc1ncc(C3CCC3)cc1C2(C)c1ccccc1 (single isomer, unassigned) [Compound 122A] | pIC50 ([2]; 100 μM ATP, read-out: GSK3b 100 μM ATP Average IC50): 5.30 to 6.00; pIC50 ([3]; 100 μM ATP, read-out: GSK3a 100 μM ATP Average IC50): 5.30 to 6.00
– | – | 6.00 to 7.00 | 6.00 to 7.00 | CC(C)Oc1cccc(C2(C)C3=C(CC(C)(C)CC3=O)Nc3ncc(F)cc32)c1 (single isomer, unassigned) [629B] | –
4.70 to 5.30 | 4.70 to 5.30 | – | – | CC1(C)CC(=O)C2=C(C1)Nc1ncc(Br)c(Cl)c1C2(C)c1ccccc1 (single isomer, unassigned) [Compound 145B] | –
– | – | 6.00 to 7.00 | 6.00 to 7.00 | CC1(C)CC(=O)C2=C(C1)Nc1ncc(F)c(C#N)c1C2(C)c1cccc(F)c1 (single isomer, unassigned) [618B] | –
– | – | ≥ 7.00 | ≥ 7.00 | CC1(C)CC2=C(C(=O)N1)C(C)(c1ccccc1)c1c(ncc(F)c1C#N)N2 (single isomer, unassigned) [604B] | –
– | – | 4.70 to 5.30 | 4.70 to 5.30 | CC1(C)CC(=O)C2=C(C1)Nc1ncc(F)c(C#N)c1C2(C)c1cccc(F)c1 (single isomer, unassigned) [618A] | –
– | – | – | – | CCC1(c2cccc(-c3ccncc3OC)c2)C2=C(CC(C)(C)CC2=O)Nc2ncccc21 (single isomer, unassigned) [Compound 1028A] | pIC50 [2, 8]: < 5.30; pIC50 [3, 9]: 5.30 to 6.00
– | – | 4.70 to 5.30 | 4.70 to 5.30 | C=Cc1cnc2c(c1Br)C(C)(c1ccccc1)C1=C(CC(C)(C)CC1=O)N2 (single isomer, unassigned) [640B] | –
6.00 to 7.00 | 6.00 to 7.00 | – | – | CC1(C)CC(=O)C2=C(C1)Nc1ncc(F)c(F)c1C2(C)c1ccccc1 (single isomer, unassigned) [Compound 116B] | –

— patent publication US20260103465A1, “GLYCOGEN SYNTHASE KINASE 3 INHIBITORS AND USES THEREOF” (The Broad Institute, Inc., priority 2023, published 2026)
